The text below walks through data of US20220153786A1, “PEPTIDES FOR PREVENTING BIOFILM FORMATION” (priority 2019, published 2022).

Assay [1] concerns Staphylococcus epidermidis ATCC 35984. Put plainly: Bacterial growth assay, microtiter plates OD600. Format: cell-based. To be noted: untreated growth control = 100%. The protocol:
Bacterial growth assays. Microtiter plates: bacterial growth was evaluated by difference between the optical density absorbance at 600 nm measured at the end and the beginning of the incubation time (37° C., 1, 4 or 24 h) in 96-well poly(vinyl chloride) microtiter plates. Rifampicin 16 μg/mL (Sigma-Aldrich Co., USA) was used as a control for bacterial growth inhibition. Colony-forming units (CFU/mL): after incubation (37° C., 24 h) the CFU was calculated to determine bactericidal effect of peptide solution. Untreated growth control was considered 100% of planktonic cells. All assays were at least performed as technical and biological triplicates.
Microtiter plates: Bacterial growth was evaluated by comparing OD600 values at the start and end of incubation in 96-well PVC microtiter plates.

The test system of assay [2] is Staphylococcus epidermidis RP62A (ATCC 35984) biofilm. The assay is described as follows: Biofilm formation inhibition, crystal violet in 96-well PVC microtiter plates. Format: cell-based. The note with it: biofilm formation control = 100%. The method, then: Biofilm formation. […] Biofilm inhibition: a protocol adapted from Zimmer et al. (2013) Environmental Microbiology 15:2008-2018 and Trentin et al. (2015) Scientific Reports 5:8287, employing crystal violet in 96-well poly(vinyl chloride) microtiter plates (Falcon; Becton Dickinson Labware, Oxnard, Calif.) was used. Briefly, 100 μL of the bacterial suspension, 100 μL of the peptide solution (at different concentrations) or vehicle (to controls) and 50 μL of tryptone soya broth (TSB, Oxoid Ltd., England). Following 37° C. for 1, 4 or 24 h of incubation, the content of the wells was removed and the wells were washed three times with sterile saline. The remaining contents were heat-fixed at 60° C. for 1 h. The adherent biofilm layer formed was stained with 0.4% crystal violet for 15 min at room temperature and then washed three times with distilled water. The stain bound to the cells was solubilized with absolute ethanol (Sigma-Aldrich Co., USA) and absorbance was measured at 570 nm (Powerwave™ XS Plate Reader, BIO-TEK Instruments®, Inc.). The biofilm formation controls represent 100% of biofilm formation. Biofilm eradication: biofilm was pre-formed as described before, during 24 h at 37° C., without treatment. After biofilm formation, the wells were washed to remove the planktonic cells and the peptides solutions and controls were added and incubated for 24 h. The eradication was verified by evaluating the remaining content by crystal violet.
Biofilm formation inhibition: A protocol adapted from Trentin et al. (2015) Scientific Reports 5 was used, with crystal violet in 96-well BD Falcon polyvinyl chloride (PVC) microtiter plates. The cell-bound stains were solubilized with absolute ethanol (Sigma-Aldrich), and absorbance was measured at 570 nm using a BIO-TEK PowerWave XS plate reader. The biofilm formation control represents 100% of biofilm formation.

[3] abbreviates: positive control, concentration 780 (μM).

With IQQAQQLS (P3y), the “Growth (%)” value in assay [1] (peptide concentration 10 μM) was 172.0%. Further, the “Remanescent biofilm (%)” value in assay [2] (peptide concentration 10 μM) worked out at 6.2%.
Regarding `CO[C@H]1/C=C/O[C@@]2(C)Oc3c(C)c(O)c4c(O)c(c(/C=N/N5CCN(C)CC5)c(O)c4c3C2=O)NC(=O)/C(C)=C\C=C\[C@H](C)[C@H](O)[C@@H](C)[C@@H](O)[C@@H](C)[C@H](OC(C)=O)[C@@H]1C` [Rifampicin, reference compound], in assay [1] (setting [3]), the “Growth (%)” value turned out to be 28.7%. Moreover, the “Remanescent biofilm (%)” value in assay [2] (setting [3]) is listed as 9.7%.
As to SCQQYLKQ (P3z), the “Growth (%)” value in assay [1] (peptide concentration 100 μM) is 169.9%. Further, the “Remanescent biofilm (%)” value in assay [2] (peptide concentration 100 μM) is 46.3%.
As for “RSCQQQIQQAQQLSSCQQYLKQRVQSEEGEDQISQRE (P31) [synthetic peptide derived from 2S sulfur-rich seed storage protein 2-like of Capsicum baccatum]”, in assay [1] (peptide concentration 400 μM), the “Growth (%)” value was 88.6%. The “Remanescent biofilm (%)” value in assay [2] (peptide concentration 400 μM) is listed as 8.3%.
Turning to RVQSEEGEDQISQRE (P1), in assay [1] (peptide concentration 100 μM), the “Growth (%)” value was 123.2%. For the same molecule, in assay [2] (peptide concentration 100 μM), the “Remanescent biofilm (%)” value was 64.9%.
With RSCQQQ (P3x), the “Growth (%)” value in assay [1] (peptide concentration 100 μM) came out at 91.9%. In assay [2] (peptide concentration 100 μM), the “Remanescent biofilm (%)” value was 34.4%.
For RSCQQQIQQAQQ (P3a) the same measures were 89.9% and 61.5%.
